{"source": "patent US8993574B2", "about": "“Pyrrole antifungal agents” (F2G Ltd, priority 2008, dated 2015)", "key": {"[1]": {"test_system": "Aspergillus fumigatus AF293", "assay": "MIC, RPMI medium", "format": "cell-based", "conditions": "Aspergillus fumigatus, AF293, MIC banded into grades, read-out: MIC grade, A. fumigatus", "in_short": "(§1)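 Fungi are tested in RPMI buffered with 0.135 M MOPS (pH 7.0) plus 2% glucose, inoculum 1−2×10^4 cfu/mL, against doubling compound dilutions spanning 50-0.05 mg/L. After 24-48 h at 35° C, the MIC is the lowest concentration suppressing growth by >80% against drug-free control.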"}, "Aspergillus terreus AT49": {"test_system": "Aspergillus terreus AT49", "assay": "MIC, RPMI medium", "format": "cell-based", "conditions": "Aspergillus terreus, AT49, MIC banded into grades, read-out: MIC grade, A. terreus 49", "in_short": "as §1"}, "Aspergillus terreus AT4": {"test_system": "Aspergillus terreus AT4", "assay": "MIC, RPMI medium", "format": "cell-based", "conditions": "Aspergillus terreus, AT4, MIC banded into grades, read-out: MIC grade, A. terreus", "in_short": "as §1"}, "A. fumigatus A1163": {"test_system": "A. fumigatus A1163", "assay": "Persistently (PI) neutropenic murine survival model of disseminated aspergillosis", "format": "in vivo, CD-1 mouse", "conditions": "severe PI model, oral, 20 mg/kg BD", "description": "Methods: Temporary (TI) or persistently (PI) neutropenic CD-1 mouse models of disseminated aspergillus were used. 3 days post immunosuppression with cyclophosphamide (200 mg/kg ip) mice were infected IV with an LD90 challenge of A. fumigatus A1163. Treatment commenced 5 h post infection and animals were treated for 9 days and observed for either 2 days or 7 days following cessation of treatment. […] 2-(1,5-Dimethyl-3-phenyl-1H-pyrrol-2-yl)-N-{4-[4-(4,6-dimethyl-pyridin-2-yl)-piperazin-1-yl]-phenyl}-2-oxo-acetamide was dosed orally as a suspension in HPMC/Tween 80 once or twice daily. Caspofungin dosed IP was used as a comparator."}, "[2]": {"test_system": "Aspergillus fumigatus AF210", "assay": "Checkerboard titration, fractional inhibitory concentration (FIC), RPMI media", "format": "cell-based", "conditions": "compound A in combination with caspofungin as compound B", "description": "In the checkerboard titration doubling dilutions of compound A (e.g. an antifungal pyrrole compound as defined earlier) are prepared in every row across a microtitre plate and doubling dilutions of compound B (e.g. a second antifungal agent as defined earlier) are prepared in every column down a microtitre plate. The activity of the two compounds in combination can be compared with the activity of each compound alone. In such experiments a narrow range of dilutions can be tested for each compound around the minimum inhibitory concentration (MIC).\nAs an example, a stock solution of compound A (e.g. 5 mg/ml) can be prepared in a suitable solvent such as DMSO. A stock solution of compound B (e.g. caspofungin) is also prepared (e.g. 2 mg/ml). The stock solution of compound A is diluted (e.g. at a concentration of 1:2000 in water) to 2.5 μg/ml. […]\nTo determine the combined effect of the compounds the Fractional inhibitory concentration FIC is determined, where FIC is defined as: FIC=FICA+FICB=CA^comb/MICA^alone+CB^comb/MICB^alone where MICA^alone and MICB^alone are the MICs of compounds A and B when acting alone and CA^comb and CB^comb are concentrations of compounds A and B at the isoeffective combinations, respectively. […]"}, "[3]": {"test_system": "Aspergillus and other filamentous fungi", "assay": "Activity in vitro against Aspergillus and other filamentous fungi", "format": "cell-based"}}, "data": [{"smiles": "Cc1cc(C)nc(N2CCN(c3ccc(NC(=O)C(=O)c4c(-c5ccccc5)cc(C)n4C)cc3)CC2)c1", "note": "[Example 1, 2-(1,5-Dimethyl-3-phenyl-1H-pyrrol-2-yl)-N-{4-[4-(4,6-dimethyl-pyridin-2-yl)-piperazin-1-yl]-phenyl}-2-oxo-acetamide]", "values": [{"measurement": "MIC", "setting": "[1]", "value": "< 1", "unit": "µg/mL"}, {"measurement": "MIC", "setting": "Aspergillus terreus AT49", "value": "< 1", "unit": "µg/mL"}, {"measurement": "MIC", "setting": "Aspergillus terreus AT4", "value": "< 1", "unit": "µg/mL"}, {"measurement": "survival at day 12", "setting": "A. fumigatus A1163", "value": 70, "unit": "%"}, {"measurement": "FIC (fractional inhibitory concentration)", "setting": "[2]", "value": 0.67}, {"measurement": "activity in vitro against Aspergillus and other filamentous fungi", "setting": "[3]", "value": "excellent activity"}]}]}
